Earlier results, collected in paper PMC6222850, “^66Ga: A Novelty or a Valuable Preclinical Screening Tool for the Design of Targeted Radiopharmaceuticals?” (Molecules : A Journal of Synthetic Chemistry and Natural …, 2018).

Test system: LNCaP tumors
Design: method as in PMID 29623376

In the case of `O=C(O)CC[C@H](NC(=O)N[C@@H](CCCCNC(=O)[C@H](Cc1ccc2ccccc2c1)NC(=O)[C@H]1CC[C@H](CNC(=O)CN2CCN(CC(=O)O)CCN(CC(=O)O)CCN(CC(=O)O)CC2)CC1)C(=O)O)C(=O)O` [PSMA-617], the Clearance from blood is listed as “fast clearance from blood”.
